Laboratory results: patent US20230085307A1, “PYRIDAZINONE COMPOUND AND HERBICIDE” (NISSAN CHEMICAL CORPORATION, priority 2019, published 2023)

Columns and labels:
lambsquarters [1] = test: Test Example 4: herbicidal effect by soil treatment (Table 19, symbol O); format: in vivo, lambsquarters (Chenopodium album); conditions: amount of applied herbicide 320 g/ha
Summary of the method: (§1)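 Soil-surface application: an emulsion agent diluted with water to the predetermined dose is sprayed uniformly over seeds lying under roughly 1.5 cm of sterilized diluvial soil. Boxes stay in a greenhouse at 25° C. to 30° C. Three weeks later, each species is graded on previously defined criteria.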

green foxtail [2] = test: Test Example 4: herbicidal effect by soil treatment (Table 19, symbol G); format: in vivo, green foxtail (Setaria viridis); conditions: amount of applied herbicide 320 g/ha
Summary of the method: as §1

windgrass [3] = test: Test Example 4: herbicidal effect by soil treatment (Table 19, symbol L); format: in vivo, windgrass (Apera spica-venti); conditions: amount of applied herbicide 320 g/ha
Summary of the method: as §1

blackgrass [4] = test: Test Example 5: herbicidal effect by foliage application, plastic box (Table 20, symbol J); format: in vivo, blackgrass (Alopecurus myosuroides); conditions: foliage application, 320 g/ha
Summary of the method: (§2)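 Sow seeds spot-wise in sterilized diluvial soil; cover with ~1.5 cm soil. Grow 14 days in greenhouse, 25° C. to 30° C. Spray foliage with emulsion diluted to predetermined amount. Rate effect after 3 weeks.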

persian speedwell [5] = test: Test Example 5: herbicidal effect by foliage application, plastic box (Table 20, symbol R); format: in vivo, Persian speedwell (Veronica persica); conditions: foliage application, 320 g/ha
Summary of the method: as §2

velvetleaf [6] = test: Test Example 5: herbicidal effect by foliage application, plastic box (Table 20, symbol M); format: in vivo, velvetleaf (Abutilon theophrasti); conditions: foliage application, 320 g/ha
Summary of the method: as §2

false cleavers = test: Test Example 5: herbicidal effect by foliage application, plastic box (Table 20, symbol Q); format: in vivo, false cleavers (Galium spurium); conditions: foliage application, 320 g/ha
Summary of the method: as §2

persian speedwell [7] = test: Test Example 4: herbicidal effect by soil treatment (Table 19, symbol R); format: in vivo, Persian speedwell (Veronica persica); conditions: amount of applied herbicide 320 g/ha
Summary of the method: as §1

windgrass [8] = test: Test Example 5: herbicidal effect by foliage application, plastic box (Table 20, symbol L); format: in vivo, windgrass (Apera spica-venti); conditions: foliage application, 320 g/ha
Summary of the method: as §2

southern crabgrass [9] = test: Test Example 5: herbicidal effect by foliage application, plastic box (Table 20, symbol F); format: in vivo, southern crabgrass (Digitaria ciliaris); conditions: foliage application, 320 g/ha
Summary of the method: as §2

barnyard grass [10] = test: Test Example 4: herbicidal effect by soil treatment (Table 19, symbol H); format: in vivo, barnyard grass (Echinochloa crus-galli); conditions: amount of applied herbicide 320 g/ha
Summary of the method: as §1

wild oat [11] = test: Test Example 5: herbicidal effect by foliage application, plastic box (Table 20, symbol I); format: in vivo, wild oat (Avena fatua); conditions: foliage application, 320 g/ha
Summary of the method: as §2

barnyard grass [12] = test: Test Example 5: herbicidal effect by foliage application, plastic box (Table 20, symbol H); format: in vivo, barnyard grass (Echinochloa crus-galli); conditions: foliage application, 320 g/ha
Summary of the method: as §2

blackgrass [13] = test: Test Example 4: herbicidal effect by soil treatment (Table 19, symbol J); format: in vivo, blackgrass (Alopecurus myosuroides); conditions: amount of applied herbicide 320 g/ha
Summary of the method: as §1

chickweed [14] = test: Test Example 5: herbicidal effect by foliage application, plastic box (Table 20, symbol P); format: in vivo, common chickweed (Stellaria media); conditions: foliage application, 320 g/ha, evaluated three weeks after application
Summary of the method: as §2

green foxtail [15] = test: Test Example 5: herbicidal effect by foliage application, plastic box (Table 20, symbol G); format: in vivo, green foxtail (Setaria viridis); conditions: foliage application, 320 g/ha
Summary of the method: as §2

southern crabgrass [16] = test: Test Example 4: herbicidal effect by soil treatment (Table 19, symbol F); format: in vivo, southern crabgrass (Digitaria ciliaris); conditions: amount of applied herbicide 320 g/ha
Summary of the method: as §1

Italian ryegrass [17] = test: Test Example 5: herbicidal effect by foliage application, plastic box (Table 20, symbol K); format: in vivo, Italian ryegrass (Lolium multiflorum); conditions: foliage application, 320 g/ha
Summary of the method: as §2

redroot pigweed [18] = test: Test Example 4: herbicidal effect by soil treatment (Table 19, symbol N); format: in vivo, redroot pigweed (Amaranthus retroflexus); conditions: amount of applied herbicide 320 g/ha
Summary of the method: as §1

chickweed [19] = test: Test Example 4: herbicidal effect by soil treatment (Table 19, symbol P); format: in vivo, common chickweed (Stellaria media); conditions: amount of applied herbicide 320 g/ha
Summary of the method: as §1

lambsquarters [20] = test: Test Example 5: herbicidal effect by foliage application, plastic box (Table 20, symbol O); format: in vivo, lambsquarters (Chenopodium album); conditions: foliage application, 320 g/ha
Summary of the method: as §2

velvetleaf [21] = test: Test Example 4: herbicidal effect by soil treatment (Table 19, symbol M); format: in vivo, velvetleaf (Abutilon theophrasti); conditions: amount of applied herbicide 320 g/ha
Summary of the method: as §1

wild oat [22] = test: Test Example 4: herbicidal effect by soil treatment (Table 19, symbol I); format: in vivo, wild oat (Avena fatua); conditions: amount of applied herbicide 320 g/ha
Summary of the method: as §1

redroot pigweed [23] = test: Test Example 5: herbicidal effect by foliage application, plastic box (Table 20, symbol N); format: in vivo, redroot pigweed (Amaranthus retroflexus); conditions: foliage application, 320 g/ha, evaluated three weeks after application
Summary of the method: as §2

Italian ryegrass [24] = test: Test Example 4: herbicidal effect by soil treatment (Table 19, symbol K); format: in vivo, Italian ryegrass (Lolium multiflorum); conditions: amount of applied herbicide 320 g/ha
Summary of the method: as §1

barnyard grass [25] = test: Test Example 3: herbicidal effect by foliage application, Wagner pot (Table 18, symbol H); format: in vivo, barnyard grass (Echinochloa crus-galli); conditions: 320 g/ha
Summary of the method: (§3)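 Plants were sown in alluvial soil held under 0.1–0.5 cm standing water and grown 14 days in a greenhouse at 25–30 °C. An emulsifiable formulation, water-diluted to the set dose, was then sprayed onto the foliage, and effects were scored three weeks later using previously defined criteria.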

Chinese sprangletop = test: Test Example 3: herbicidal effect by foliage application, Wagner pot (Table 18, symbol D); format: in vivo, chinese sprangletop (Leptochloa chinensis); conditions: 320 g/ha
Summary of the method: as §3

rice flat sedge = test: Test Example 3: herbicidal effect by foliage application, Wagner pot (Table 18, symbol E); format: in vivo, rice flat sedge (Cyperus iria); conditions: 320 g/ha
Summary of the method: as §3

[26] = evaluated three weeks after application

Q: Which results are given for COc1cc(F)ccc1-c1sc2ccc(-c3ccoc3)cc2c1-c1c(O)c(C)nn(C)c1=O [2-170]?
A: O: lambsquarters, herbicidal effect rating (lambsquarters [1]): 2 (Herbicidal rate of 20% or more and less than 40%); G: green foxtail, herbicidal effect rating (green foxtail [2]): 0 (Herbicidal rate of 5% or less (almost no effect)); L: windgrass, herbicidal effect rating (windgrass [3]): 0 (Herbicidal rate of 5% or less (almost no effect)); herbicidal effect on J: blackgrass (criteria 0-5) (blackgrass [4]; [26]): 0 (Herbicidal rate of 5% or less (almost no effect)); herbicidal effect on R: persian speedwell (criteria 0-5) (persian speedwell [5]; [26]): 1 (Herbicidal rate of 5% or more and less than 20%); herbicidal effect on M: velvetleaf (criteria 0-5) (velvetleaf [6]; [26]): 3 (Herbicidal rate of 40% or more and less than 70%); herbicidal effect on Q: false cleavers (criteria 0-5) (false cleavers; [26]): 0 (Herbicidal rate of 5% or less (almost no effect)); R: persian speedwell, herbicidal effect rating (persian speedwell [7]): 0 (Herbicidal rate of 5% or less (almost no effect)); herbicidal effect on L: windgrass (criteria 0-5) (windgrass [8]; [26]): 0 (Herbicidal rate of 5% or less (almost no effect)); herbicidal effect on F: southern crabgrass (criteria 0-5) (southern crabgrass [9]; [26]): 1 (Herbicidal rate of 5% or more and less than 20%); H: barnyard grass, herbicidal effect rating (barnyard grass [10]): 0 (Herbicidal rate of 5% or less (almost no effect)); herbicidal effect on I: wild oat (criteria 0-5) (wild oat [11]; [26]): 0 (Herbicidal rate of 5% or less (almost no effect)); herbicidal effect on H: barnyard grass (criteria 0-5) (barnyard grass [12]; [26]): 0 (Herbicidal rate of 5% or less (almost no effect)); J: blackgrass, herbicidal effect rating (blackgrass [13]): 0 (Herbicidal rate of 5% or less (almost no effect)); herbicidal effect on P: chickweed (criteria 0-5) (chickweed [14]): 5 (Herbicidal rate of 90% or more (almost completely withered)); herbicidal effect on G: green foxtail (criteria 0-5) (green foxtail [15]; [26]): 0 (Herbicidal rate of 5% or less (almost no effect)); F: southern crabgrass, herbicidal effect rating (southern crabgrass [16]): 3 (Herbicidal rate of 40% or more and less than 70%); herbicidal effect on K: Italian ryegrass (criteria 0-5) (Italian ryegrass [17]; [26]): 0 (Herbicidal rate of 5% or less (almost no effect)); N: redroot pigweed, herbicidal effect rating (redroot pigweed [18]): 0 (Herbicidal rate of 5% or less (almost no effect)); P: chickweed, herbicidal effect rating (chickweed [19]): 0 (Herbicidal rate of 5% or less (almost no effect)); herbicidal effect on O: lambsquarters (criteria 0-5) (lambsquarters [20]; [26]): 3 (Herbicidal rate of 40% or more and less than 70%); M: velvetleaf, herbicidal effect rating (velvetleaf [21]): 0 (Herbicidal rate of 5% or less (almost no effect)); I: wild oat, herbicidal effect rating (wild oat [22]): 0 (Herbicidal rate of 5% or less (almost no effect)); herbicidal effect on N: redroot pigweed (criteria 0-5) (redroot pigweed [23]): 3 (Herbicidal rate of 40% or more and less than 70%); K: Italian ryegrass, herbicidal effect rating (Italian ryegrass [24]): 0 (Herbicidal rate of 5% or less (almost no effect))

Q: Which results are given for CCOc1cc2sc(-c3ccccc3OC)c(-c3c(O)c(C)nn(C)c3=O)c2cc1F [5-065]?
A: O: lambsquarters, herbicidal effect grade (lambsquarters [1]): 5 (Herbicidal rate of 90% or more (almost completely withered)); G: green foxtail, herbicidal effect grade (green foxtail [2]): 4 (Herbicidal rate of 70% or more and less than 90%); L: windgrass, herbicidal effect grade (windgrass [3]): 3 (Herbicidal rate of 40% or more and less than 70%); herbicidal effect on blackgrass (J) (blackgrass [4]; three weeks after application): 4 (Herbicidal rate of 70% or more and less than 90%); herbicidal effect on persian speedwell (R) (persian speedwell [5]; three weeks after application): 5 (Herbicidal rate of 90% or more (almost completely withered)); herbicidal effect on velvetleaf (M) (velvetleaf [6]; three weeks after application): 5 (Herbicidal rate of 90% or more (almost completely withered)); herbicidal effect on false cleavers (Q) (false cleavers; three weeks after application): 5 (Herbicidal rate of 90% or more (almost completely withered)); herbicidal effect on barnyard grass (H) (barnyard grass [25]): 4 (Herbicidal rate of 70% or more and less than 90%); R: persian speedwell, herbicidal effect grade (persian speedwell [7]): 5 (Herbicidal rate of 90% or more (almost completely withered)); herbicidal effect on windgrass (L) (windgrass [8]; three weeks after application): 5 (Herbicidal rate of 90% or more (almost completely withered)); herbicidal effect on southern crabgrass (F) (southern crabgrass [9]; three weeks after application): 4 (Herbicidal rate of 70% or more and less than 90%); herbicidal effect on Chinese sprangletop (D) (Chinese sprangletop): 3 (Herbicidal rate of 40% or more and less than 70%); H: barnyard grass, herbicidal effect grade (barnyard grass [10]): 4 (Herbicidal rate of 70% or more and less than 90%); herbicidal effect on wild oat (I) (wild oat [11]; three weeks after application): 4 (Herbicidal rate of 70% or more and less than 90%); herbicidal effect on barnyard grass (H) (barnyard grass [12]; three weeks after application): 5 (Herbicidal rate of 90% or more (almost completely withered)); J: blackgrass, herbicidal effect grade (blackgrass [13]): 3 (Herbicidal rate of 40% or more and less than 70%); herbicidal effect on rice flat sedge (E) (rice flat sedge): 4 (Herbicidal rate of 70% or more and less than 90%); herbicidal effect on green foxtail (G) (green foxtail [15]; three weeks after application): 5 (Herbicidal rate of 90% or more (almost completely withered)); F: southern crabgrass, herbicidal effect grade (southern crabgrass [16]): 0 (Herbicidal rate of 5% or less (almost no effect)); herbicidal effect on Italian ryegrass (K) (Italian ryegrass [17]; three weeks after application): 4 (Herbicidal rate of 70% or more and less than 90%); N: redroot pigweed, herbicidal effect grade (redroot pigweed [18]): 5 (Herbicidal rate of 90% or more (almost completely withered)); P: chickweed, herbicidal effect grade (chickweed [19]): 5 (Herbicidal rate of 90% or more (almost completely withered)); herbicidal effect on lambsquarters (O) (lambsquarters [20]; three weeks after application): 5 (Herbicidal rate of 90% or more (almost completely withered)); M: velvetleaf, herbicidal effect grade (velvetleaf [21]): 2 (Herbicidal rate of 20% or more and less than 40%); I: wild oat, herbicidal effect grade (wild oat [22]): 1 (Herbicidal rate of 5% or more and less than 20%); K: Italian ryegrass, herbicidal effect grade (Italian ryegrass [24]): 3 (Herbicidal rate of 40% or more and less than 70%)
